Reference: paper PMC8537011 (Journal of Fungi, 2021)

Molecular target: T1, PELa (P. expansum Lactonase) (Penicillium expansum, UniProt A0A0A2K035)
T1 construct: gene PEX2_072460
Experiment: UV absorbance at […] nm, initial rates, Michaelis-Menten fit
Format: biochemical
Conditions: 100 mM Tris-HCl pH 7.5, NaCl, 100 µM ZnCl2, 25 °C; 0.6 μM enzyme, 0-0.4 mM patulin

T1 sequence (A0A0A2K035 entry or part of it): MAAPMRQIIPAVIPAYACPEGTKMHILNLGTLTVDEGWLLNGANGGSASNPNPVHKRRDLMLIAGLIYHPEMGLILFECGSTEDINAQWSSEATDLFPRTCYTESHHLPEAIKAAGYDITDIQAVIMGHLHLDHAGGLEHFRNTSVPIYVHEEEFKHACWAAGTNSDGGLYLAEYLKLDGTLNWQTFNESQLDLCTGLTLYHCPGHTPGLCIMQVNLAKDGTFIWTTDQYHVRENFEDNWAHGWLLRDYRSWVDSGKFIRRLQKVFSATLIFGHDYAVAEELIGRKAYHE

## O=C1C=C2C(=CCOC2O)O1 (stereo not shown) [patulin]
  Km: 377 ± 112 µM
